{"source": "patent US20240082218A1", "about": "“PHARMACEUTICAL COMBINATIONS COMPRISING A KRAS G12C INHIBITOR AND USES OF A KRAS G12C INHIBITOR FOR THE TREATMENT OF CANCERS” (priority 2020, published 2024)", "key": {"[1]": {"target": "NRAS WT (Homo sapiens, UniProt P01111)", "sequence (P01111 whole entry)": "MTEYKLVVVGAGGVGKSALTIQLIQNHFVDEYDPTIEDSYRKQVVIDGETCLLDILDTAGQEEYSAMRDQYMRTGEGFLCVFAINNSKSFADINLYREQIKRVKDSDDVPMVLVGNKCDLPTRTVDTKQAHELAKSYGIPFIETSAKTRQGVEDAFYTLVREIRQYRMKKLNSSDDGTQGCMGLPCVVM", "assay": "cRAF recruitment 6 h cellular assay", "type": "cell-based"}, "[2]": {"test_system": "MEK Q56P mutated cell lines", "assay": "pERK 6 h cellular assay", "type": "cell-based", "conditions": "Hec50, 6 h, read-out: pERK 6 h EC50 MEK^Q56P"}, "[3]": {"test_system": "HCC44 xenograft", "assay": "Anti-tumor activity in HCC44 xenografts", "type": "in vivo, mice", "conditions": "10, 30 and 100 mg/kg oral daily"}, "[4]": {"assay": "4-week toxicity study", "type": "in vivo", "conditions": "dog"}, "[5]": {"assay": "Oral exposure and tolerability in dog"}}, "note": "pEC50: −log10 of the molar value.", "data": [{"smiles": "C=CC(=O)N1CC2(CC(n3nc(-c4ccc5c(cnn5C)c4)c(-c4c(Cl)c(C)cc5[nH]ncc45)c3C)C2)C1", "note": "(single isomer, unassigned) [Compound A, 1-{6-[(4M)-4-(5-Chloro-6-methyl-1H-indazol-4-yl)-5-methyl-3-(1-methyl-1H-indazol-5-yl)-1H-pyrazol-1-yl]-2-azaspiro[3.3]heptan-2-yl}prop-2-en-1-one]", "values": [{"measurement": "pEC50", "setting": "[1]", "value": "< 5.22"}, {"measurement": "pEC50", "setting": "[2]", "value": "< 5.00"}, {"measurement": "pattern of maximal response", "setting": "[3]", "value": "stasis-like"}, {"measurement": "tolerability in 4-week toxicity study", "setting": "[4]", "value": "well tolerated"}, {"measurement": "oral bioavailability", "setting": "[5]", "value": "orally bioavailable"}, {"measurement": "tolerability", "setting": "[5]", "value": "well-tolerated"}]}]}
